Data as given in US5349127A, “Expression of herbicide metabolizing cytochromes P450” (priority 1992, dated 1994).
“And” between values parts separate entries of the source, which are not always exact repeats. Identical values can stand only once.

What was measured:
S. lividans C37 = assay: Percent conversion of herbicides by cultures (Example 16); type: in vitro ADME, Streptomyces lividans; settings: 3.0 mg herbicide in 25 ml broth; 24 hours
Description: (§1) Separate cultures (50 ml) inoculated with S. lividans C37, S. lividans transformed with pCAO200SU1-FeS-B#9, S. griseolus ATCC11796, S. griseolus PH2003 transformed with pIJ425, or S. ariseolus PH2003 transformed with pCS325 were cultured in sporulation broth for 18 hours at 30° C. with shaking. Each culture was then resuspended in 25 ml fresh sporulation broth and 3.0 mg herbicide added. In the case of cultures of S. griseolus ATCC11796, a second culture containing herbicide and 3.0 mg 10001 was also prepared. Each culture was reincubated for 24 hours, then an aliquot of the medium was withdrawn and analyzed by HPLC. The percent conversion of herbicide was determined.

[1] = tested on: S. lividans pCAO200SU1-FeS-B#9; assay: as above; type: in vitro ADME, Streptomyces lividans; settings: 3.0 mg herbicide in 25 ml broth; 24 hours
Description: as §1

[2] = tested on: Tobacco plants (Nicotiana tabactum cv. Wisconsin 38); assay: Foliar spray of 10015 on P450SU1 transformed tobacco plants (Example 21); type: in vivo, Nicotiana tabacum; settings: individual plants
Excerpt: Tobacco plants (Nicotiana tabactum cv. Wisconsin 38) transformed with plasmids pAGS112, pSU18, pSSU-SU111, pCab-SU121 or pCab-SU131 (singly) and accumulating the P450SU1 protein were identified by Western blot analysis. Seed arising from the self pollination of individual primary transformants designated AGS112, SU18.8, SU18.14, SSU-SU111.5, […], and Cab-SU131.5 gave rise to the plants described in this Example. The progeny of primary AGS112 and Cab-SU121.5 transformants segregated for single copy kanamycin resistance. In contrast, the progeny of the plants transformed with plasmids containing P450SU1 (other than Cab-SU121.5) segregated for multicopy kanamycin resistance. Thus, most plants containing the gene encoding P450SU1 and sprayed with 10015 in this Example likely contained at least one, and in many cases multiple, copies of P450SU1, while very few individuals likely carried no copies of the gene encoding P450SU1.
Seed from transformed and nontransformed tobacco plants was germinated in a commercial potting mix Metro-Mix® 350 for 25 days. Individual plants were then transferred to 4 inch×4 inch pots containing Metro Mix® 350 and were allowed to grow in the greenhouse for an additional 22 days at which time most plants contained 4-5 fully expanded leaves. A developmentally uniform population of plants was selected from among these transplants and the individual plants were then sprayed with a carrier solution of AGWT (90.2% Acetone: 4.8% Glycerol: 4.8% Water: 0.24% Tween 20 by volume) containing sulfonylurea compound 10015 at concentrations of 1,4, or 16 grams/hectare (g/ha). The sprayed plants were returned to the greenhouse and rated for injury 22 days later.

[3] = tested on: transformed tobacco seedlings; assay: Tissue culture growth of transformed tobacco seed on 50 nM 10015 (Examples 22-23); type: in vivo, Nicotiana tabacum
Description: Growth medium was prepared from Murishige minimal organics medium (Gibco Laboratories, Grand Island, N.Y.), 8 g/l agar, supplemented with T vitamins (50 ppb biotin, 0.5 ppm pyridoxine HCl, 0.5 ppm thiamine HCl, 5 ppm nicotinic acid, 0.5 ppm folic acid, 2 ppm glycine, 100 ppm myo-inositol), sterilized and placed into sterile PlantCon plant tissue culture containers (Flow Laboratories, McLean, Va.). Tobacco seed obtained from the self-pollination of the primary transformants was surface sterilized by a treatment of not more than 30 min in 20% chlorine bleach, 0.1% sodium dodecyl sulfate, followed by rinsing in distilled water, and placed on the surface of the medium in the sterile containers. Following this treatment, the seed was allowed to germinate and grow under illumination (100 microeinsteins·m^-2 ·s^-1), at 22° C.
Because of the increased phytotoxicity of 10014 over that of 10015, plants grown in media containing 10015 should be growth inhibited if they contain an active cytochrome P450SU1. To test this, seeds of tobacco were grown in tissue culture media supplemented with 50 nM compound 10015, and the results are shown in Table 20.
This technique was used to analyze the progeny of plants transformed with both the gene for SU1 and FeS-B, and the results are shown in Table 21.
Plants transformed With the plasmids pSuFe31 and pSuFe41 were selected for high expression of P450SU1 and FeS-B mRNA by primer extension analysis as described in Example 19, and self pollinated to produce seed. This seed was germinated on medium containing 50 nM of compound 10015 and analyzed for sensitivity to this compound (indicating the presence of an active cytochrome P450SU1 enzyme) as in Example 22.

**Q.** With CCOC(=O)c1ccccc1S(=O)(=O)NC(=O)Nc1nc(Cl)cc(OC)n1 [compound 10001, N-[(4-chloro-6-methoxy-pyrimidin-2-yl)aminocarbonyl]-2-ethoxycarbonylbenzenesulfonamide] as the compound, how does the “Percent Conversion” value (S. lividans C37) read?
**A.** The value was 0%.

**Q.** And the “Percent Conversion” value [1]?
**A.** Its value is 56%.

**Q.** With COc1cc(OC)nc(NC(=O)NS(=O)(=O)c2cccc3c2S(=O)(=O)N(C(C)C)C3)n1 [compound 10015] as the compound, how does the “% Damage” value ([2]; 1 g/ha, AGS 112, 22 days) read?
**A.** Its value is 0% and 10%.

**Q.** What about the “% Damage” value ([2]; 1 g/ha, Cab-SU111.8, 22 days) of the same compound?
**A.** The value was 90% and 95%.

**Q.** And the “% Damage” value ([2]; 1 g/ha, Cab-SU121.5, 22 days)?
**A.** The value was 85% and 95% and 20%.

**Q.** What about the “% Damage” value ([2]; 1 g/ha, Cab-SU131.5, 22 days) of the same compound?
**A.** The value was 50% and 95% and 90%.

**Q.** What about the “% Damage” value ([2]; 1 g/ha, SSU-SU111.5, 22 days) of the same compound?
**A.** The value was 95%.

**Q.** What about the “% Damage” value ([2]; 1 g/ha, SU18.14, 22 days) of the same compound?
**A.** The value was 40%.

**Q.** And the “% Damage” value ([2]; 1 g/ha, SU18.8, 22 days)?
**A.** Its value is 10%.

**Q.** And the “% Damage” value ([2]; 1 g/ha, W38, 22 days after spraying)?
**A.** Its value is 0% and 10%.

**Q.** What about the “% Damage” value ([2]; 4 g/ha, AGS 112, 22 days) of the same compound?
**A.** The value was 0% and 40%.

**Q.** What about the “% Damage” value ([2]; 4 g/ha, Cab-SU111.8, 22 days) of the same compound?
**A.** The value was 0% and 99%.

**Q.** What about the “% Damage” value ([2]; 4 g/ha, Cab-SU121.5, 22 days) of the same compound?
**A.** The value was 90% and 100% and 95%.

**Q.** And the “% Damage” value ([2]; 4 g/ha, Cab-SU131.5, 22 days)?
**A.** The value was 40% and 100%.

**Q.** And the “% Damage” value ([2]; 4 g/ha, SSU-SU111.5, 22 days)?
**A.** Its value is 100%.

**Q.** And the “% Damage” value ([2]; 4 g/ha, SU18.14, 22 days)?
**A.** Its value is 70%.

**Q.** And the “% Damage” value ([2]; 4 g/ha, SU18.8, 22 days)?
**A.** Its value is 60%.

**Q.** What about the “% Damage” value ([2]; 4 g/ha, W38, 22 days) of the same compound?
**A.** The value was 0% and 10% and 20% and 30%.

**Q.** And the “Compound 10015 Sensitive (plants demonstrating result/total plants)” value ([3]; AGS502 (Control))?
**A.** The value was 0/9.

**Q.** And the “Number 10015 Resistant” value ([3]; AGS502 (Control))?
**A.** Its value is 32.

**Q.** What about the “Number 10015 Sensitive” value ([3]; AGS502 (Control)) of the same compound?
**A.** The value was 0.

**Q.** And the “Ratio Sensitive/Resistant” value ([3]; AGS502 (Control))?
**A.** The value was 0.

**Q.** What about the “Compound 10015 Sensitive (plants demonstrating result/total plants)” value ([3]; SuFe21.2) of the same compound?
**A.** The value was 7/9.

**Q.** And the “Compound 10015 Sensitive (plants demonstrating result/total plants)” value ([3]; SuFe21.5)?
**A.** Its value is 8/9.

**Q.** And the “Compound 10015 Sensitive (plants demonstrating result/total plants)” value ([3]; SuFe21.6)?
**A.** Its value is 7/9.

**Q.** What about the “Compound 10015 Sensitive (plants demonstrating result/total plants)” value ([3]; SuFe21.7) of the same compound?
**A.** Its value is 5/7.

**Q.** What about the “Compound 10015 Sensitive (plants demonstrating result/total plants)” value ([3]; SuFe21.8) of the same compound?
**A.** The value was 10/10.

**Q.** What about the “Number 10015 Resistant” value ([3]; SuFe31.13) of the same compound?
**A.** Its value is 4.

**Q.** What about the “Number 10015 Sensitive” value ([3]; SuFe31.13) of the same compound?
**A.** Its value is 12.

**Q.** And the “Ratio Sensitive/Resistant” value ([3]; SuFe31.13)?
**A.** Its value is 3.0.

**Q.** What about the “Number 10015 Resistant” value ([3]; SuFe31.28) of the same compound?
**A.** Its value is 5.

**Q.** What about the “Number 10015 Sensitive” value ([3]; SuFe31.28) of the same compound?
**A.** Its value is 10.

**Q.** What about the “Ratio Sensitive/Resistant” value ([3]; SuFe31.28) of the same compound?
**A.** The value was 2.0.

**Q.** And the “Number 10015 Resistant” value ([3]; SuFe41.34)?
**A.** The value was 32.

**Q.** What about the “Number 10015 Sensitive” value ([3]; SuFe41.34) of the same compound?
**A.** Its value is 0.

**Q.** What about the “Ratio Sensitive/Resistant” value ([3]; SuFe41.34) of the same compound?
**A.** Its value is 0.

**Q.** And the “Number 10015 Resistant” value ([3]; SuFe41.37)?
**A.** The value was 8.

**Q.** What about the “Number 10015 Sensitive” value ([3]; SuFe41.37) of the same compound?
**A.** The value was 24.

**Q.** What about the “Ratio Sensitive/Resistant” value ([3]; SuFe41.37) of the same compound?
**A.** Its value is 3.0.

**Q.** What about the “Number 10015 Resistant” value ([3]; SuFe41.56) of the same compound?
**A.** The value was 32.

**Q.** What about the “Number 10015 Sensitive” value ([3]; SuFe41.56) of the same compound?
**A.** Its value is 0.

**Q.** What about the “Ratio Sensitive/Resistant” value ([3]; SuFe41.56) of the same compound?
**A.** The value was 0.

**Q.** What about the “Number 10015 Resistant” value ([3]; SuFe41.60) of the same compound?
**A.** The value was 15.

**Q.** What about the “Number 10015 Sensitive” value ([3]; SuFe41.60) of the same compound?
**A.** The value was 0.

**Q.** What about the “Ratio Sensitive/Resistant” value ([3]; SuFe41.60) of the same compound?
**A.** The value was 0.

**Q.** What about the “Compound 10015 Sensitive (plants demonstrating result/total plants)” value ([3]; SuFell.1) of the same compound?
**A.** Its value is 2/9.

**Q.** What about the “Compound 10015 Sensitive (plants demonstrating result/total plants)” value ([3]; SuFell.11) of the same compound?
**A.** Its value is 0/9.

**Q.** And the “Compound 10015 Sensitive (plants demonstrating result/total plants)” value ([3]; SuFell.3)?
**A.** The value was 0/8.

**Q.** And the “Compound 10015 Sensitive (plants demonstrating result/total plants)” value ([3]; SuFell.4)?
**A.** The value was 0/10.

**Q.** What about the “Compound 10015 Sensitive (plants demonstrating result/total plants)” value ([3]; SuFell.7) of the same compound?
**A.** Its value is 0/9.

**Q.** What about the “Compound 10015 Sensitive (plants demonstrating result/total plants)” value ([3]; SuFell.8) of the same compound?
**A.** The value was 1/10.
